Legend:
[1] = molecular target: T1, HNE in CF patient sputum (Homo sapiens, UniProt P08246); experiment: HNE inhibition in CF patient sputum; conditions: sputum samples of CF patients
T1 sequence (P08246 30-267): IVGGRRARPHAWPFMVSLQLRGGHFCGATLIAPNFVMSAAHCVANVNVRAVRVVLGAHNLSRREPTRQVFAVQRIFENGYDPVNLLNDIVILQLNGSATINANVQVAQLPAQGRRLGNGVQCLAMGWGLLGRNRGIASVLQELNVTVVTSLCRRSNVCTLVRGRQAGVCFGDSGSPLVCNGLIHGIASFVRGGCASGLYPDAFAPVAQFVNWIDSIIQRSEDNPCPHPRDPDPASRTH

[2] = molecular target: T2, purified HNE (human neutrophil elastase) (Homo sapiens, UniProt P08246); experiment: Inhibition of purified human neutrophil elastase
T2 sequence (P08246 30-267): T1 sequence (P08246 30-267)

inhibitory activity in CF patient sputum (in words) [1]: potencies diminished
HNE inhibitory activity (in words) [2]: low IC50 values
Substance: BAY 85-8501 [compound 54]

Source: article PMC5807063 (Science (New York, N.Y.), 2017)
